Measurements as given in publication PMC9296036, “A peptide interfering with the dimerization of oncogenic KITENIN protein and its stability suppresses colorectal tumour progression” (Clinical and Translational Medicine, 2022).
Ends that are not written are not given here.

Test system: Caco2/KITENIN cells
Test: Transwell cell invasion assay, Caco2/KITENIN cells
Assay type: cell-based
Settings: Caco2 cells transfected with KITENIN-V5, KDIP versus scrambled peptide
Procedure: Cell invasion was measured using the transwell migration apparatus as described.[18] Briefly, cultured cells were seeded into the top of a 24‐well invasion chamber assay plate (Costar). Conditioned DMEM medium containing 10 μg/ml of fibronectin (Calbiochem) and 1% FBS was added to the bottom chamber as a chemoattractant. After 16 h (Caco2) or 48 h (HCT116) of incubation, the cells were stained. Cells at the top surface of the filters were wiped off with a cotton ball, and migrated cells on the bottom surface were counted in four random squares of .5 mm × .5 mm on each filter. The results are shown as the mean ± SEM of the number of cells per field for at least three independent experiments.
Effect of KAI1 C‐terminal interacting tetraspanin (KITENIN) dimerization‐interfering peptide (KDIP) on tumour growth and metastasis in in vivo mouse model of colorectal cancer (CRC). […] For the evaluation of metastasis, total fluorescence emitted from liver nodules expressing iRFP was measured and counted (left panel) or metastatic tumour growth was counted as nodules that migrated to the surface of the liver, and a metastatic score was obtained by multiplying it with size (middle panel). Metastatic score or total fluorescence is represented as mean ± SEM. […] The quantitative amount of each protein was measured by densitometry and is represented as an arbitrary score (mean ± SEM, n = 6). […]

YARVRRRGPRRWRLVSDEAV [KDIP]
cellular invasion by overexpressed KITENIN (in words): reduced
